Laboratory results reported in patent US20220118051A1, “SELF-ASSEMBLING VEGF NANOPARTICLES” (Northwestern University, priority 2018, published 2022).
Entries after “also recorded” stand apart in the source; their conditions may differ. C16 = N-terminal C16 alkyl chain

B1: rVEGF: mouse recombinant VEGF (R&D systems) (protein)
chain: APTTEGEQKSHEVIKFMDVYQRSYCRPIETLVDIFQEYPDEIEYIFKPSCVPLMRCAGCCNDEALECVPTSESNITMQIMRIKPHQSQHIGEMSFLQHSRCECRPKKDRTKPENHCEPCSERRKHLFVQDPQTCKCSCKNTDSRCKARQLELNERTCRCDKPRR

Assays:
[1] = system: ZO-1, Claudin-5 and Occludin; test: Western blot of tight junction proteins in cerebella; format: in vivo, mouse; conditions: SCA1 mice cerebella, normalized to actin
Experimental: (§1) To test for behavioral and pathological improvement mice were treated for a two-week period starting at 24 weeks. Nano-VEGF, mouse rVEGF (R&D systems, Minneapolis, Minn.) or artificial CSF (sham controls) were delivered using the intracerebroventricular route (into the right lateral ventricle with stereotaxic coordinates: A/P −0.5 mm, M/L −1.1 mm, D/V −2.5 mm). using osmotic ALZET pumps; model #1002, Durect) (Cvetanovic et al., 2011; herein incorporated by reference in its entirety). Behavioral assays were performed at 26 weeks; while biochemical and histochemical analysis was performed at 27 weeks (after euthanasia). For electrophysiological experiments, we used 8-10 week-old mice for pump placement (with a similar two-week treatment regimen) since it is difficult to generate good electrophysiological traces from older mice.
(§2) Proteins were extracted from cerebellar tissues using radioimmunoprecipitation assay (RIPA) buffer (50 mM Tris-HCl, pH 8.0, 150 mM NaCl, 1 mM EDTA, 10 mM NaF, 0.5% Sodium deoxycholate, 1% Triton-X 100, 0.1% SDS, protease inhibitors (Sigma)), and resolved on 7.5% SDS-PAGE gel. Densitometric analysis was evaluated using ImageJ 1.46r software (National Institutes of Health, Bethesda, Md., USA). […]

[2] = system: Ataxin-1 inclusions; test: Immunohistochemistry of Ataxin-1 inclusions in hippocampal CA1; format: in vivo, mouse; conditions: SCA1 mice, 27 weeks; vs aCSF
Experimental: as §1
To quantify the percentage of cells with ataxin-1 inclusions in the CA1 regions of the hippocampus, brain sections were stained for ataxin-1 (mouse anti-Ataxin-1 11NQ clone N76/3; NeuroMab, 1:1000) and counterstained with DAPI. The number of cells with ataxin-1 inclusions in each defined region of interest was normalized to the number of cells stained with DAPI only. Statistical analysis was performed using unpaired t test. […]

[3] = molecular target: T1, VEGFR2 (Mus musculus, UniProt P35918); test: Phospho-VEGFR2 ELISA on cerebellar lysates; format: in vivo
T1 construct: Cerebellar lysates were prepared in 2× cell lysis buffer; from tissue; host or cells: mouse cerebellum (SCA1 154Q/2Q knock-in and wild-type mice)
T1 sequence (P35918 20-1345): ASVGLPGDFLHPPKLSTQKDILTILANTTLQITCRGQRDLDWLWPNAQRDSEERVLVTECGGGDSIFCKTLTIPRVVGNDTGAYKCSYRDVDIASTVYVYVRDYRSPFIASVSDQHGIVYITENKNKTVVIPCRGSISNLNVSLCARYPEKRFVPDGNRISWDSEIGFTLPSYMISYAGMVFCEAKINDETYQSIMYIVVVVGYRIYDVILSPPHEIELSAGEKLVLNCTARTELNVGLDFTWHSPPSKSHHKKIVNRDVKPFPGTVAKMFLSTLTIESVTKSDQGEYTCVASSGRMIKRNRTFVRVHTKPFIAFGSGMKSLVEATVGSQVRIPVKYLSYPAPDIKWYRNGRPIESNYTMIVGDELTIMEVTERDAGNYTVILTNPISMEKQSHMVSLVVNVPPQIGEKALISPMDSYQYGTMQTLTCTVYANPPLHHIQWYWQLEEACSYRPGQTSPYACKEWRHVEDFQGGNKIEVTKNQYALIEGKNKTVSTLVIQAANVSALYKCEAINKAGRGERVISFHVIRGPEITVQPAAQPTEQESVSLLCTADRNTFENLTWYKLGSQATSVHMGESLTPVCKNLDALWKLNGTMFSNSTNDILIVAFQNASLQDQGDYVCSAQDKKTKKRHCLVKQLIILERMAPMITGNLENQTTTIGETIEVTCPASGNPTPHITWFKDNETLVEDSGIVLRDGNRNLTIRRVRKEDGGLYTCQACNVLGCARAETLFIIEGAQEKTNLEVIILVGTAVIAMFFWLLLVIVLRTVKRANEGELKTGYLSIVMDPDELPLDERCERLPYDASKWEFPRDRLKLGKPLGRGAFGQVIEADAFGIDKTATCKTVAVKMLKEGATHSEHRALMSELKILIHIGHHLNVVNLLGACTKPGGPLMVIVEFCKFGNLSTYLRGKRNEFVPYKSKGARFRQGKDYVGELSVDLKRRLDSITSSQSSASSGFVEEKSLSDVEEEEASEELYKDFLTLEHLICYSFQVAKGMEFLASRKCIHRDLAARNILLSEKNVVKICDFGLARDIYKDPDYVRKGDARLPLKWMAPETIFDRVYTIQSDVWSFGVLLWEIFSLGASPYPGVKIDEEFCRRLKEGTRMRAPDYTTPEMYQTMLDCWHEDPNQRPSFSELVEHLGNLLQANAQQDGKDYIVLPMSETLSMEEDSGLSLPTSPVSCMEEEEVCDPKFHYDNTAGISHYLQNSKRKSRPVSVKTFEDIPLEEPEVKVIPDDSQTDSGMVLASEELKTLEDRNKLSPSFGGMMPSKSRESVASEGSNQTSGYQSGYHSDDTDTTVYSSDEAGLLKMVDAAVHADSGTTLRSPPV
Experimental: as §1
Phospho-VEGFR2 ELISA was performed using PathScan® Phospho-VEGFR2 (Ty1175) Sandwich ELISA kit (7335, Cell Signaling), according to manufacturer's instruction. Cerebellar lysates were prepared in 2× cell lysis buffer, and undiluted tissue lysates were incubated in 96-well plates coated with phosphor-VEGFR2 primary antibody overnight at 4° C. Wells were washed several times, and detection antibody was added to the well and incubated for 1 hr at 37C and with HRP-conjugated secondary antibody for 30 min at 37° C. Signals were detected with 3,3′,5,5′-Tetramethylbenzidine (TMB) substrate and sulfuric acid were added to stop the reaction. Absorbance was read at 450 nm within 30 min after stopping the reaction.

[4] = cited from earlier work
[5] = system: Purkinje cells; test: Electrophysiological slice recordings, cell-attached, spontaneous firing; format: in vivo, mouse; conditions: SCA1 mice treated from 8-10 weeks for two weeks; vs vehicle (aCSF)
Experimental: as §1
Mice were anesthetized with isoflurane and killed by decapitation. The brains were removed from the skull and placed in warm (30-33° C.) artificial cerebrospinal fluid (ACSF) containing (in mM): 125 NaCl, 25 NaHCO3, 2.5 KCl, 1.25 NaH2PO4, 0.5 CaCl2), 7 MgCl2, 75 sucrose and 25 glucose, equilibrated with 95% O2 and 5% CO2 (pH 7.4). 300 μm thick para-sagittal cerebellar slices were cut using a vibratome (Leica VT1200) and stored in the same solution at 34° C. for 15 min and then at 20-22° C. until used (<6 hours). […] Cells were recorded in the I-Clamp fast mode. […]

[6] = system: SCA1 knock-in mice (SCA1154Q/2Q); test: Gait analysis on transparent treadmill (Digigait); format: in vivo, mouse; conditions: tested up to 24 cm/s, untreated SCA1 mice barely walk at 5 cm/s
Experimental: as §1
Gait Analysis: Mice were placed on a transparent treadmill belt connected to a high-speed digital video camera (Digigait© system; Mouse Specifics, Inc.). The speed of the treadmill was set to the minimum of 5 cm/s up to maximum tolerated speed (maxed out at 24 cm/s). The performance of mice on the treadmill at different speeds was recorded with digital video camera.

[7] = system: SCA1 knock-in mice (SCA1154Q/2Q); test: Rotating rod assay (accelerating rotarod); format: in vivo, mouse; conditions: SCA1 mice at 26 weeks; for rotarod performance: after two-week ICV delivery from 24 weeks, compared to aCSF-treated SCA1 mice
Experimental: as §1
Rotating Rod Assay: 26-week-old mice (post-treatment) were placed on a rotating rod apparatus (Ugo Basile) that accelerates linearly from 4 to 40 rotations per minute over a 5-minute period. Mice were subjected to four trials per day for four consecutive days, each trial lasting to a maximum of ten minutes, with at least ten minutes of rest between each trial. The average performances for each day were plotted, and statistical differences between the different groups were analyzed using repeated measures two-way ANOVA (followed by Tukey's honest significant difference post-hoc test for multiple comparisons). All statistical analyses here and elsewhere were performed using GraphPad Prism 6 software (GraphPad Software, La Jolla Calif. USA). Data were considered significant for p<0.05. Data are expressed as mean±SEM.

[8] = system: cerebellar microvasculature; test: Collagen IV immunostaining of cerebellar microvessels (AngioTool); format: in vivo, mouse; conditions: SCA1 mice cerebella
Experimental: as §1
(§3) 27-week-old mice (post treatment and post behavioral analysis) were anesthetized by isoflurane inhalation and were perfused with ice-cold PBS, followed by 4% paraformaldehyde in PBS (Israeli et al., 2016; herein incorporated by reference in its entirety). The brains were post-fixed in 4% paraformaldehyde for 24 hrs, followed by tissue saturation in 30% sucrose for 48-72 hrs. […] After three washes in TBST, signals were detected using according secondary antibodies for 2 hours at RT. […]

[9] = system: Ataxin-1; test: Western blot of Ataxin-1; format: in vivo, mouse; conditions: SCA1 mice, two weeks of treatment
Experimental: as §1, §2

[10] = system: Purkinje cells; test: Calbindin staining, Purkinje cell dendritic length; format: in vivo, mouse; conditions: SCA1 mice at 27 weeks; vs aCSF
Experimental: as §1, §3

[11] = cited from earlier work; remark: listed apart in the source
[12] = SCA1 mice, cerebellar lysates, vs aCSF

| Molecule | levels of capillary proteins (tight junction markers ZO-1, Claudin-4, and Occludin) [1] | percentage of cells with Ataxin-1 inclusions in the CA1 of hippocampi [2] | VEGFR2 phosphorylation level [3, 12] | VEGFR2 phosphorylation level ([3]; wild-type (WT) mice) | bioequivalence relative to rVEGF ([4]; functional studies in mouse hind-limb ischemia model, basis for dose 20.0 μg vs 2.5 μg) | time detectable post-injection ([4]; ischemic limb model) | retention of particles in tissue ([4]; mouse hind-limb ischemia model) | spontaneous firing of Purkinje cells [5] | treadmill speed at which treated mice could walk and even run [6] [cm/s] | rotarod performance [7] | rotarod performance ([7]; listed as Nano-VEGF) | rotarod improvement, nano-VEGF compared with rVEGF ([7]; nano-VEGF 20.0 μg vs rVEGF 2.5 μg over two weeks ICV) | average vessel length, improvement compared with rVEGF [8] | branching index, improvement compared with rVEGF [8] | Ataxin-1 protein levels [9] | Purkinje cell dendritic length (calbindin staining) [10] | half-life in vivo [11] |
| --- | --- | --- | --- | --- | --- | --- | --- | --- | --- | --- | --- | --- | --- | --- | --- | --- | --- |
| C16-V2A2K3G-KLTWQELYQLKYKGI (C16-VVAAKKKGKLTWQELYQLKYKGI-NH2) [nano-VEGF, VEGF peptide (mimics VEGF residues 17-25) linked at N terminus to K3G, V2A2 β-domain and C16 alkyl chain; self-assembling peptide amphiphile] | more effective than rVEGF | does not differ from that of aCSF-treated mice | rescued | did not upregulate phosphorylation of VEGFR2 | approximately eight times that of rVEGF | up to 4 weeks | retained in tissue even four weeks after delivery | significantly faster and more regular firing; also recorded: increases firing in Purkinje cells | 17 | performed markedly better than control SCA1 mice treated with artificial CSF | improved rotarod performance | tended to produce a greater improvement than rVEGF; also recorded: more effective | greater improvement | greater improvement | does not alter Ataxin-1 levels | significantly increase dendritic length |  |
| B1 |  |  | rescued | did not upregulate phosphorylation of VEGFR2 |  |  |  |  | 17 | performed markedly better than control SCA1 mice treated with artificial CSF; also recorded: improved rotarod performance |  |  |  |  |  | significantly increase dendritic length | about 30 minutes |
